In the supplement of paper PMC4862054:

Tests used:
Experiment in all cases: normalised viability (% of control), CellTiter-Blue; higher = more viable cells (about 100 = DMSO control)
Conditions in all cases: incubation time: 72 h
HCC1143 = system: HCC1143
Method: (§1)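 DSRT, CellTiter-Blue viability, 72 h incubation. Signal is normalised to DMSO and benzethonium chloride controls. Value is the normalised response at dose 3.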

MDA-MB-231 = system: MDA-MB-231
Method: as §1

HDQ-P1 = system: HDQ-P1
Method: as §1

CAL-51 = system: CAL-51
Method: as §1

CAL-148 = system: CAL-148
Method: as §1

CAL-120 = system: CAL-120
Method: as §1

DU-4475 = system: DU-4475
Method: as §1

CAL-85-1 = system: CAL-85-1
Method: as §1

BT-474 = system: BT-474
Method: as §1

MDA-MB-453 = system: MDA-MB-453
Method: as §1

MFM-223 = system: MFM-223
Method: as §1

MDA-MB-468 = system: MDA-MB-468
Method: as §1

Hs578T = system: Hs578T
Method: as §1

Compound: CC(C)(C)c1cnc(CSc2cnc(NC(=O)C3CCNCC3)s2)o1 [SNS-032]
- normalised viability (HCC1143; 100 nM): 76.5%
- normalised viability (MDA-MB-231; 100 nM): 69.5%
- normalised viability (HDQ-P1; 10 nM): 132%
- normalised viability (CAL-51; 10 nM): 117%
- normalised viability (CAL-148; 10 nM): 89.1%
- normalised viability (CAL-120; 100 nM): 69%
- normalised viability (DU-4475; 10 nM): 101%
- normalised viability (CAL-85-1; 10 nM): 96.2%
- normalised viability (BT-474; 100 nM): 85.5%
- normalised viability (MDA-MB-453; 10 nM): 99.8%
- normalised viability (MFM-223; 100 nM): 82.7%
- normalised viability (MDA-MB-468; 100 nM): 96.9%
- normalised viability (Hs578T; 100 nM): 52.8%

Compound: Nc1nc2[nH]cnc2c(=S)[nH]1 [Thioguanine]
- normalised viability (HCC1143; 100 nM): 82.7%
- normalised viability (MDA-MB-231; 100 nM): 89.3%
- normalised viability (HDQ-P1; 10 nM): 103%
- normalised viability (CAL-51; 10 nM): 108%
- normalised viability (CAL-148; 10 nM): 109%
- normalised viability (CAL-120; 100 nM): 96.8%
- normalised viability (DU-4475; 10 nM): 105%
- normalised viability (CAL-85-1; 10 nM): 102%
- normalised viability (BT-474; 100 nM): 109%
- normalised viability (MDA-MB-453; 10 nM): 109%
- normalised viability (MFM-223; 100 nM): 95.2%
- normalised viability (MDA-MB-468; 100 nM): 107%
- normalised viability (Hs578T; 100 nM): 89.9%

Compound: C[C@]12CC[C@@H]3c4ccc(OC(=O)N(CCCl)CCCl)cc4CC[C@H]3[C@@H]1CC[C@@H]2O [Estramustine]
- normalised viability (HCC1143; 9.9 nM): 105%
- normalised viability (MDA-MB-231; 9.9 nM): 93.8%
- normalised viability (HDQ-P1; 0.99 nM): 109%
- normalised viability (CAL-51; 0.99 nM): 88.3%
- normalised viability (CAL-148; 0.99 nM): 113%
- normalised viability (CAL-120; 9.9 nM): 102%
- normalised viability (DU-4475; 0.99 nM): 85.1%
- normalised viability (CAL-85-1; 0.99 nM): 111%
- normalised viability (BT-474; 9.9 nM): 113%
- normalised viability (MDA-MB-453; 0.99 nM): 100%
- normalised viability (MFM-223; 9.9 nM): 95.9%
- normalised viability (MDA-MB-468; 9.9 nM): 108%
- normalised viability (Hs578T; 9.9 nM): 102%

Compound: Nc1ncn([C@@H]2O[C@H](CO)[C@@H](O)[C@H]2O)c(=O)n1 [Azacitidine]
- normalised viability (HCC1143; 100 nM): 91.5%
- normalised viability (MDA-MB-231; 100 nM): 84.5%
- normalised viability (HDQ-P1; 10 nM): 108%
- normalised viability (CAL-51; 10 nM): 108%
- normalised viability (CAL-148; 10 nM): 82.7%
- normalised viability (CAL-120; 100 nM): 90.9%
- normalised viability (DU-4475; 10 nM): 118%
- normalised viability (CAL-85-1; 10 nM): 95.2%
- normalised viability (BT-474; 100 nM): 107%
- normalised viability (MDA-MB-453; 10 nM): 101%
- normalised viability (MFM-223; 100 nM): 94.7%
- normalised viability (MDA-MB-468; 100 nM): 103%
- normalised viability (Hs578T; 100 nM): 91.7%
